Data from patent publication US20240307340A1, “IMMUNOSUPPRESSIVE PHARMACEUTICAL COMPOSITION INCLUDING BENZENE DERIVATIVE AS IMMUNOSUPPRESSANT” (INJE UNIVERSITY INDUSTRY-ACADEMIC COOPERATION FOUNDATION, priority 2021, published 2024).

Legend:
[1] = system: T lymphocyte cell line Jurkat E6-1; assay: Cytotoxicity (CCK-8 viability); assay type: cell-based; conditions: 20 h culture
Method: The cytotoxicities of the compounds of Examples 1-19 and Comparative Examples 1-3 to T lymphocyte cell line Jurkat E6-1 provided from the Korea Cell Line Bank were measured using a cell counting kit (CCK-8, Dojindo). After the cell line was allowed to grow in RPMI1640 medium supplemented with 10% FBS, 100 U/mL penicillin, and 100 μg/mL streptomycin, cells were plated in each well of a 96-well plate at a density of 2λ10^4 cells/well and treated with each of the compounds of Examples 1-19 and Comparative Examples 1-3. After culture in a 5% CO2 incubator at 37° C. for 20 h, CCK-8 solution was added to a concentration of 10%, followed by reculture in a 5% CO2 incubator at 37° C. for one and a half hours. The absorbance was measured at 450 nm (Reference: 650 nm) and was expressed in percent relative to the value […] from non-treated cells (viability 100%).
In Table 1, the number 100 corresponds to a viability of 100%.

[2] = system: BALB/c mice with psoriasis induced by Aldara cream (imiquimod); assay: Imiquimod-induced psoriasis model; assay type: in vivo; conditions: for psoriatic skin lesions (photographs, FIG. 49): 40 mg/kg intraperitoneal in 50 μL DMSO; for number of CD4 T cells in spleen (flow cytometry) / number of CD8 T cells in spleen (flow cytometry) / inflammatory cell infiltration (H&E staining of skin) / erythema / skin scaling / skin thickness: 40 mg/kg intraperitoneal; for number of CD4 T cells in spleen (flow cytometry) / number of CD8 T cells in spleen (flow cytometry): splenic T cells; for inflammatory cell infiltration (H&E staining of skin): versus negative control and DMSO group; for erythema / skin scaling / skin thickness: visual observation, P<0.05
Method: A test was conducted to evaluate the alleviation of psoriatic skin lesions using psoriasis animals. To this end, first, BALB/c mice (7 weeks old/20 g/female) purchased from Hana Biotech Co., Ltd., Korea were acclimated to the vivarium for a period of one week. After that, the hair on the back of the mice was shaved and completely removed with a depilatory cream (Niclean cream (thioglycolic acid […], Ildong Pharmaceutical Co., Ltd., Korea)). The animals were bred for 24 h. 80 mg of Aldara® cream (imiquimod 4 mg) was applied daily for 1 week (7 days, 7 times in total) to induce psoriasis, as shown in FIG. 49. Thereafter, 80 mg of Aldara® cream (imiquimod 4 mg) was continuously applied to each group for 10 days. During the administration, an observation was made as to whether psoriasis was alleviated. As a result, skin lesions were alleviated in the group administered the inventive compound than in the negative control or the DMSO-administered group, as shown in FIG. 49.
After the skin tissues of the test subjects were subjected to H&E staining according to the above schedule, the degrees of inflammatory cell infiltration were observed.
FIGS. 56 and 57 show the results of flow cytometry for the groups administered the compounds of Examples 14 and 17. The in vivo effects of the compounds of Examples 14 and 17 on T cells in the test subjects were investigated. To this end, the spleens were harvested from the mice administered each compound and T cells were extracted from the harvested spleens.

SMILES | viability relative to non-treated cells, 10 μM (%) [1] | viability relative to non-treated cells, 20 μM (%) [1] | viability relative to non-treated cells, 30 μM (%) [1] | psoriatic skin lesions (photographs, FIG. 49) [2] | number of CD4 T cells in spleen (flow cytometry) [2] | number of CD8 T cells in spleen (flow cytometry) [2] | inflammatory cell infiltration (H&E staining of skin) [2] | erythema [2] | skin scaling [2] | skin thickness [2]
CCCCCCNC(=O)c1ccccc1OC [Example 4] | 96% | 92% | 88% | – | – | – | – | – | – | –
CCCCCCCCCCCCNC(=O)c1ccccc1O [Example 7] | 82% | 79.3% | 66% | – | – | – | – | – | – | –
CCCCC(CC)CNC(=O)c1ccccc1F (centres unmarked) [Example 8] | 94.7% | 92.2% | 90.9% | – | – | – | – | – | – | –
CCCCC(CC)CNC(=O)c1ccccc1Br (centres unmarked) [Example 9] | 95.3% | 95.1% | 92.0% | – | – | – | – | – | – | –
CCCCCCCCCCNC(=O)c1ccccc1Br [Example 12] | 91% | 85.3% | 78.5% | – | – | – | – | – | – | –
C=CCCCCCCCCCNC(=O)c1ccccc1Br [Example 13] | 98.8% | 97.9% | 90.3% | – | – | – | – | – | – | –
CC(C)=CCC/C(C)=C/CNC(=O)c1ccccc1Br [Example 14] | 96.9% | 96.6% | 95.4% | alleviated | decreases | decreases | less inflammatory cell infiltration | significant decreases | significant decreases | significant decreases
C=CCCCCCCCCCNC(=O)c1ccccc1F [Example 15] | 88.8% | 91.2% | 93.5% | – | – | – | – | – | – | –
CC(C)=CCC/C(C)=C/CNC(=O)c1ccccc1F [Example 16] | 89.3% | 85.7% | 76.3% | – | – | – | – | – | – | –
CC(C)=CCC/C(C)=C/CC/C(C)=C/COC(=O)c1ccccc1Br [Example 17] | 73.6% | 72.1% | 72.7% | alleviated | decreases | decreases | less inflammatory cell infiltration | significant decreases | significant decreases | significant decreases
